From patent publication US20260224563A1, “CRYSTALLINE FORMS OF 6-(3-((5-CHLORO-2-METHOXYPYRIDINE)-3-SULFONAMIDO)-2,6-DIFLUOROPHENYL)-N-METHYLIMIDAZO[1,5-A]PYRAZINE-1-CARBOXAMIDE AND METHODS FOR USING THE SAME” (HIBERCELL, INC., priority 2023, published 2026)
Where a name gives a salt, the structure may show the parent alone.

Key:
[1] = Pharmacokinetic study of HC-7366 via oral (PO) administration of different formulations in beagle dogs; format: in vivo; conditions: dog, plasma, 7.5 mg/kg, PO 7.5 mpk, male beagle dogs
Experimental: 10 mL of 0.001 N HCl was used to wash the gavage catheter for each animal.

[2] = Mechanical (grinding) and tableting treatment of Form III of the potassium salt (XRPD); format: physicochemical
Experimental: Form III of the potassium salt was ground manually (e.g., using a mortar and pestle) for 5 minutes. The ground sample was then analyzed by XRPD. No change in the crystal form was observed.
Tableting treatment of Form III of the potassium salt was conducted at 35 MPa pressure for 10 seconds using a tablet machine (HY-12, Tianjin Tianguang Optical Instrument Co., Ltd). The resulting solid was analyzed by XRPD. No change in the crystal form was observed after the tableting treatment. However, the crystallinity of Form III of the potassium salt decreased after the pressure test.

Tmax [1]	Crystallinity ([2]; after tableting treatment at 35 MPa pressure for 10 seconds)	Change in the crystal form (XRPD) ([2]; ground manually for 5 minutes)	Change in the crystal form (XRPD) ([2]; tableting treatment at 35 MPa pressure for 10 seconds)	bioavailability ([1]; in a capsule, n=3)	SMILES
4 h					CNC(=O)c1ncn2cc(-c3c(F)ccc(NS(=O)(=O)c4cc(Cl)cnc4OC)c3F)ncc12 [HC-7366-K, 6-(3-((5-chloro-2-methoxypyridine)-3-sulfonamido)-2,6-difluorophenyl)-N-methylimidazo[1,5-a]pyrazine-1-carboxamide]
	decreased	No change	No change	~50%	CNC(=O)c1ncn2cc(-c3c(F)ccc(NS(=O)(=O)c4cc(Cl)cnc4OC)c3F)ncc12 [Potassium salt Form III, 6-(3-((5-chloro-2-methoxypyridine)-3-sulfonamido)-2,6-difluorophenyl)-N-methylimidazo[1,5-a]pyrazine-1-carboxamide]
